According to patent US20070212360A1, “Modulation of mitochondrial oxygen consumption for therapeutic purposes” (priority 2006, published 2007):

Tests used:
Assay type in all cases: in vivo, mouse
[1] = test system: RKO and RKOShHIF1α tumors; test: Tumor hypoxia by pimonidazole immunofluorescence
Method: FIG. 9. Increasing oxygen consumption by inhibition of HIF increases tumor hypoxia. (a-d) Pimonidazole staining of tumor sections from RKO (a,b) and RKOShHIF1α (c,d) tumors 24 h after treatment with PBS (a,c) or echinomycin (b,d). The tumor section is outlined in white, pimonidazole staining is shown in green, and the necrotic areas and cutting artifacts are shown in gray. (e) The mean hypoxic fraction of RKO and RKOShHIF1α tumors 24 h after treatment with PBS or echinomycin (n=4-5 tumors per group). Error bars represent the standard error of the mean. (*) indicates a significant difference (p<0.05).
Detection of tumor hypoxia by pimonidazole immunofluorescence. Mice bearing 100-300 mm^3 subcutaneous RKO and RKOshHIF tumors on either flank were treated with 0.12 mg/kg echinomycin ip or saline control, and 24 h later they were injected with the hypoxia marker drug pimonidazole (60 mg/kg ip) (Millipore, Temecula, Calif.). Three hours after pimonidazole injection, tumors were excised, and frozen in Tissue-Tek O.C.T. compound. Frozen sections (10 μm thick) from the center regions of tumors were cut, air dried, and fixed for 15 min in acetone at 4 C. Slides were then air dried, rehydrated in PBS, and blocked for 30 min in 4% FBS, 5% non-fat milk, and 0.1% Triton X-100 in PBS. Slides were incubated for 1 hr at room temperature with a FITC-conjugated monoclonal antibody against pimonidazole (Millipore) diluted 1:20 in blocking solution. Slides were washed, counterstained with 50 nM propidium iodide (PI), and mounted under a coverslip in Vectashield medium (Vector Labs, Burlingame, Calif.).
FITC and Pi fluorescent signals for entire tumor sections (one section per tumor) were acquired using a 4× objective lens on a Nikon Eclipse E800 microscope equipped with a motorized scanning stage, a 12-bit QImaging camera (OImaging, Burnaby, Canada), and Bioquant imaging software (Bioquant, Nashville, Tenn.). Acquisition parameters were held constant for all samples. ImageJ software (NIH, Bethesda, Md.) was used to analyze the resulting tiled images. […]

[2] = test system: RKO and RKOShHIF1α tumors; test: Tumor growth delay, RKO and RKOShHIF1α xenografts
Method: (§1) FIG. 10. Pharmacologic inhibition of HIF1 or PDK1 enhances the response of tumor xenografts to the hypoxic cytotoxin tirapazamine. For all experiments, treatment was initiated when the mean tumor volume was 100-200 mm^3. (a) RKO tumor bearing mice were treated with 0.12 mg/kg echinomycin ip followed by 30 mg/kg tirapazamine ip at 24 hours, followed by a rest day for 3 cycles. Single agents were given at the same dose, on the same schedule. (b) RKO tumor bearing mice were treated with 50 mg/kg DCA ip followed by 20 mg/kg tirapazamine ip at 4 hours daily for 14 days. Single agents were given at the same dose, on the same schedule. (c,d,e) RKO (c), RKOShHIF1α (d), or Su.86 (e) tumor bearing mice were treated with echinomycin plus tirapazamine as described above for 6 cycles (Ech+TPZ), or tirapazamine followed by echinomycin at 24 hours followed by a rest day for 6 cycles (TPZ+Ech). For all experiments, arrows indicate when treatment was stopped.
Cell lines and tumor xenografts. RKO human colon carcinoma cells and Su.86 human pancreatic carcinoma cells were obtained from the American Type Culture Collection (ATCC, Manassas, Va.). The RKOShHIF1α cell line in which HIF1α is stably knocked down by shRNA has been described previously. RKO and immortalized MEF cells were grown in Dulbecco's Modified Eagle's Media (DMEM) supplemented with 10% fetal bovine serum (FBS). Su.86 cells were grown in RPMI 1640 medium supplemented with 10% FBS. Cells were exposed to hypoxia by placing culture dishes into an Invivo2 humidified hypoxia workstation (Ruskin Technologies, Bridgend, UK) at 0.5% O2. Echinomycin (a gift of A. Giaccia, Stanford University) was included in the media at the indicated concentrations. Tumor xenografts were established by injecting 5×10^6 cells for the RKO lines or 1×10^7 cells for the Su.86 line sc into the flanks of 6-8 week old female nude mice. To monitor tumor growth, caliper measurements were made of two perpendicular diameters, and the formula (d1)(d2)(d2)(0.52) was used to calculate tumor volume. […]

Su.86 tumors = test: Tumor growth delay, Su.86 xenografts; settings: tirapazamine followed by echinomycin at 24 hours, 6 cycles; compared to echinomycin followed by tirapazamine
Method: as §1
Cell lines and tumor xenografts. RKO human colon carcinoma cells and Su.86 human pancreatic carcinoma cells were obtained from the American Type Culture Collection (ATCC, Manassas, Va.). The RKOShHIF1α cell line in which HIF1α is stably knocked down by shRNA has been described previously. RKO and immortalized MEF cells were grown in Dulbecco's Modified Eagle's Media (DMEM) supplemented with 10% fetal bovine serum (FBS). […]

[3] = 24 h after 0.12 mg/kg echinomycin ip vs vehicle

CS[C@H]1SC[C@H]2C(=O)N(C)[C@@H](C(C)C)C(=O)OC[C@@H](NC(=O)c3cnc4ccccc4n3)C(=O)N[C@@H](C)C(=O)N(C)[C@@H]1C(=O)N(C)[C@@H](C(C)C)C(=O)OC[C@@H](NC(=O)c1cnc3ccccc3n1)C(=O)N[C@@H](C)C(=O)N2C [echinomycin]
extent of hypoxia in RKOShHIF1α tumors (pimonidazole) [1, 3]: no significant effect
hypoxic fraction of RKO tumors (pimonidazole) [1, 3]: increase in the hypoxic fraction
extent of necrosis in tumor sections ([1]; four treatment groups (RKO, RKOShHIF1α; echinomycin or vehicle)): no difference
tumor growth delay of combination compared to single agents, RKO tumors ([2]; 0.12 mg/kg echinomycin ip followed at 24 h by 30 mg/kg tirapazamine ip, rest day, 3 cycles): greater than additive
effect on tumor growth, RKOShHIF1 tumors ([2]; echinomycin plus tirapazamine, regardless of the order the drugs were given, 6 cycles): no significant effect
effect on growth of RKO tumors, reversed schedule ([2]; tirapazamine followed by echinomycin at 24 hours, 6 cycles, compared to echinomycin followed by tirapazamine): little effect
effect on growth of Su.86 tumors, reversed schedule (Su.86 tumors): little effect
